Test results taken from the supplement of paper PMC11061612.

How the values were obtained:
Assay in all cases: combination Emax (second highest fraction inhibited in the dose matrix, 72 h); higher = more inhibition; extreme values may be limits of the assay
[1] = system: SW1463 (Colorectal Carcinoma)
How it was run: (§1)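 Cell lines in DMEM/F12 or RPMI with 10% FBS were plated in 1536-well plates, held 24 hours at 37°C, 5% CO2, then given two-drug dose matrices for 72 hours (DMSO typically 0.2%). Viability was read by CellTiter-Glo 2.0 luminescence and scaled as inhibition from 0 (vehicle wells) to 1 (blank wells). Combination Emax is the second-highest inhibition in the matrix; Bliss excess is observed combination effect minus expected EA + EB − EA·EB, EA and EB being single-agent effects.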

[2] = system: NTERA-2-cl-D1 (Other Solid Carcinomas)
How it was run: as §1

[3] = system: A375 (Melanoma)
How it was run: as §1

[4] = system: NCI-H2023 (Non-Small Cell Lung Carcinoma)
How it was run: as §1

[5] = system: RS4-11 (B-Lymphoblastic Leukemia)
How it was run: as §1

[6] = system: C32 (Melanoma)
How it was run: as §1

[7] = system: MG-63 (Osteosarcoma)
How it was run: as §1

[8] = system: NCI-H2009 (Lung Adenocarcinoma)
How it was run: as §1

[9] = system: NCI-H1648 (Lung Adenocarcinoma)
How it was run: as §1

[10] = system: HT-144 (Melanoma)
How it was run: as §1

[11] = system: TOV-21G (Ovarian Carcinoma)
How it was run: as §1

[12] = system: HT-1197 (Bladder Carcinoma)
How it was run: as §1

[13] = system: NCI-H835 (Other Solid Carcinomas)
How it was run: as §1

[14] = system: C2BBe1 (Colorectal Carcinoma)
How it was run: as §1

[15] = system: MRK-nu-1 (Breast Carcinoma)
How it was run: as §1

[16] = system: MDA-MB-175-VII (Breast Carcinoma)
How it was run: as §1

[17] = system: TK (B-Cell Non-Hodgkin's Lymphoma)
How it was run: as §1

[18] = system: IGROV-1 (Ovarian Carcinoma)
How it was run: as §1

[19] = system: JJN-3 (Plasma Cell Myeloma)
How it was run: as §1

[20] = system: Daudi (Burkitt's Lymphoma)
How it was run: as §1

Row | SMILES | combination Emax [1] | combination Emax [2] | combination Emax [3] | combination Emax [4] | combination Emax [5] | combination Emax [6] | combination Emax [7] | combination Emax [8] | combination Emax [9] | combination Emax [10] | combination Emax [11] | combination Emax [12] | combination Emax [13] | combination Emax [14] | combination Emax [15] | combination Emax [16] | combination Emax [17] | combination Emax [18] | combination Emax [19] | combination Emax [20]
1 | C=CCn1c(=O)c2cnc(Nc3ccc(N4CCN(C)CC4)cc3)nc2n1-c1cccc(C(C)(C)O)n1 [AZD1775] + C1CN(CCC1(C(=O)N[C@@H](CCO)C2=CC=C(C=C2)Cl)N)C3=NC=NC4=C3C=CN4 [Capivasertib] (first compound max 3 µM, partner max 3 µM) | 0.47 | 0.496 | 0.813 | 0.652 | 0.939 | 0.52 | 0.668 | 0.883 | 0.821 | 0.954 | 0.85 | 0.543 | 0.866 | 0.533 | 0.721 | 0.506 | 0.909 |  |  | 
2 | CN(CCO)CC[C@H](CSc1ccccc1)Nc1ccc(S(=O)(=O)NC(=O)c2ccc(N3CCC([C@@H](O)c4ccccc4-c4ccc(Cl)cc4)CC3)cc2)cc1S(=O)(=O)C(F)(F)F [AZD4320] + CC(=O)O[C@H]1C(=O)[C@@]2(C)[C@H]([C@H](OC(=O)c3ccccc3)[C@]3(O)C[C@H](OC(=O)[C@H](O)[C@@H](NC(=O)c4ccccc4)c4ccccc4)C(C)=C1C3(C)C)[C@]1(OC(C)=O)CO[C@@H]1C[C@@H]2O [Paclitaxel] (first compound max 1 µM, 7x7, partner max 3 µM) | 0.767 | 0.754 | 0.992 | 0.776 |  | 0.864 | 1 | 0.933 | 0.936 |  |  |  | 1 |  | 1 | 0.766 |  |  |  | 
3 | CN(CCO)CC[C@H](CSc1ccccc1)Nc1ccc(S(=O)(=O)NC(=O)c2ccc(N3CCC([C@@H](O)c4ccccc4-c4ccc(Cl)cc4)CC3)cc2)cc1S(=O)(=O)C(F)(F)F [AZD4320] + CCN(CCO)CCCOc1ccc2c(Nc3cc(CC(=O)Nc4cccc(F)c4)[nH]n3)ncnc2c1 [AZD2811] (first compound max 1 µM, 7x7, partner max 1 µM) | 0.204 | 0.921 | 0.506 |  | 1 | 0.643 | 0.86 | 0.224 | 0.571 | 0.245 | 0.476 | 0.241 |  | 0.224 | 0.863 | 0.413 | 0.993 | 0.266 | 0.904 | 0.351
4 | CN(CCO)CC[C@H](CSc1ccccc1)Nc1ccc(S(=O)(=O)NC(=O)c2ccc(N3CCC([C@@H](O)c4ccccc4-c4ccc(Cl)cc4)CC3)cc2)cc1S(=O)(=O)C(F)(F)F [AZD4320] + Cc1cc2ncnn2cc1Nc1ncc2c(n1)n(C1CCOCC1)c(=O)n2C [AZD7648] (first compound max 1 µM, 7x7, partner max 10 µM) | 0.185 | 0.682 | 0.134 | 0.318 | 1 | 0.211 | 0.179 | 0.0699 | 0.694 | 0.193 | 0.209 | 0.261 |  | 0.383 | 0.697 | 0.274 | 0.991 | 0.653 | 0.473 | 0.22
5 | CN(CCO)CC[C@H](CSc1ccccc1)Nc1ccc(S(=O)(=O)NC(=O)c2ccc(N3CCC([C@@H](O)c4ccccc4-c4ccc(Cl)cc4)CC3)cc2)cc1S(=O)(=O)C(F)(F)F [AZD4320] + Nc1ccn([C@@H]2O[C@H](CO)[C@@H](O)C2(F)F)c(=O)n1 [Gemcitabine] (first compound max 1 µM, 7x7, partner max 0.3 µM) | 0.455 | 0.663 | 0.996 | 0.884 |  | 0.805 | 0.973 | 0.505 | 0.49 |  |  |  | 0.966 |  | 0.892 | 0.824 |  |  |  | 
6 | Cc1cc2ncnn2cc1Nc1ncc2c(n1)n(C1CCOCC1)c(=O)n2C [AZD7648] + C=CCn1c(=O)c2cnc(Nc3ccc(N4CCN(C)CC4)cc3)nc2n1-c1cccc(C(C)(C)O)n1 [AZD1775] (first compound max 10 µM, partner max 1 µM) | 0.411 | 0.476 | 0.592 | 0.703 | 0.952 | 0.434 | 0.466 | 0.566 | 0.774 | 0.611 | 0.56 | 0.521 | 0.69 | 0.345 | 0.596 | 0.38 | 0.895 | 0.819 | 0.704 | 0.809
7 | Cc1cc2ncnn2cc1Nc1ncc2c(n1)n(C1CCOCC1)c(=O)n2C [AZD7648] + CCN(CCO)CCCOc1ccc2c(Nc3cc(CC(=O)Nc4cccc(F)c4)[nH]n3)ncnc2c1 [AZD2811] (first compound max 10 µM, 7x7, partner max 1 µM) | 0.27 | 0.554 | 0.492 | 0.534 | 0.968 | 0.279 | 0.39 | 0.335 | 0.547 | 0.327 | 0.327 | 0.291 | 0.36 | 0.196 | 0.824 | 0.323 | 0.281 | 0.566 | 0.308 | 0.508
8 | Cc1cc2ncnn2cc1Nc1ncc2c(n1)n(C1CCOCC1)c(=O)n2C [AZD7648] + CN(C)CCCOc1ccc(-c2ccc3ncc4c(c3c2)n(C2CCOCC2)c(=O)n4C)cn1 [AZD0156] (first compound max 10 µM, 7x7, partner max 1 µM) | 0.159 | 0.484 | 0.269 | 0.586 | 0.246 | 0.195 | 0.331 | 0.14 | 0.508 | 0.218 | 0.169 | 0.194 | 0.36 | 0.211 | 0.515 | 0.288 | 0.204 | 0.584 | 0.17 | 0.444
9 | Cc1cc2ncnn2cc1Nc1ncc2c(n1)n(C1CCOCC1)c(=O)n2C [AZD7648] + O=C(c1cc(Cc2n[nH]c(=O)c3ccccc23)ccc1F)N1CCN(C(=O)C2CC2)CC1 [Olaparib] (first compound max 10 µM, 7x7, partner max 10 µM) | 0.0764 | 0.534 | 0.234 | 0.38 | 0.484 | 0.0555 | 0.53 | 0.137 | 0.328 | 0.232 | 0.16 | 0.216 |  | 0.218 | 0.387 | 0.142 | 0.26 | 0.598 | 0.256 | 0.446
10 | COc1cc2ncnc(Nc3ccc(F)c(Cl)c3)c2cc1OCCCN1CCOCC1 [Gefitinib] + CC(C)n1c(=O)n(C)c2cnc3cc(F)c(-c4ccc(OCCCN5CCCCC5)nc4)cc3c21 [AZD1390] (first compound max 10 µM, 7x7, partner max 0.3 µM) | 0.728 | 0.284 | 0.0854 | 0.151 | 0.168 | 0.114 | 0.202 | 0.119 | 0.646 | 0.314 | 0.275 | 0.0774 | 0.144 | 0.288 | 0.443 | 0.93 | 0.076 |  | 0.236 | 0.392
11 | N#Cc1cnc(Nc2cc(NC[C@H]3CNCCO3)c(C(F)(F)F)cn2)cn1 [SRA737] + C=CCn1c(=O)c2cnc(Nc3ccc(N4CCN(C)CC4)cc3)nc2n1-c1cccc(C(C)(C)O)n1 [AZD1775] (first compound max 10 µM, partner max 1 µM) | 0.629 | 0.483 | 0.615 | 0.594 |  | 0.581 | 0.867 | 0.82 | 0.621 |  |  |  | 0.546 |  | 0.724 | 0.276 |  |  |  | 
12 | N#Cc1cnc(Nc2cc(NC[C@H]3CNCCO3)c(C(F)(F)F)cn2)cn1 [SRA737] + Nc1ccn([C@@H]2O[C@H](CO)[C@@H](O)C2(F)F)c(=O)n1 [Gemcitabine] (first compound max 10 µM, 7x7, partner max 0.3 µM) | 0.848 | 0.54 | 0.972 | 0.708 |  | 0.724 | 0.988 | 0.785 | 0.666 |  |  |  | 0.321 |  | 0.748 | 0.519 |  |  |  | 
13 | N#Cc1cnc(Nc2cc(NC[C@H]3CNCCO3)c(C(F)(F)F)cn2)cn1 [SRA737] + O=c1[nH]cc(F)c(=O)[nH]1 [5-Fluorouracil] (first compound max 10 µM, 7x7, partner max 20 µM) | 0.402 | 0.464 | 0.226 | 0.689 |  | 0.15 | 0.492 | 0.444 | 0.208 |  |  |  | 0.391 |  | 0.443 | 0.21 |  |  |  | 
14 | C[C@@H](c1ccc2nccn2c1)n1nnc2ncc(-c3cnn(C)c3)nc21 [Savolitinib] + CN(CC[C@H](CSC1=CC=CC=C1)NC2=C(C=C(C=C2)S(=O)(=O)NC(=O)C3=CC=C(C=C3)N4CCC(CC4)[C@H](C5=CC=CC=C5C6=CC=C(C=C6)Cl)O)S(=O)(=O)C(F)(F)F)CCO [AZD4320] (first compound max 1 µM, 7x7, partner max 1 µM) |  |  | 0.202 |  | 1 | 0.377 |  |  |  | 0.189 | 0.227 | 0.255 |  | 0.187 |  |  | 0.987 | 0.219 | 0.357 | 0.188
